Data reported in US5484770A, “Peptide compounds which inhibit the proliferation of epidermal or epithelial stem cells” (Hafslund Nycomed Bioreg AS, priority 1988, dated 1996).
Where a SMILES comes first, the peptide text is derived from it. [ ]: non-standard residue; d: D form. pGlu = O=C1CC[C@@H](C(=O)O)N1

Tested on: haemopoiesis
Assay: inhibitory effect on haemopoiesis in vivo
Settings: time at which the inhibitory effect occurs
Excerpt: By contrast it is also possible to prepare peptides having a metabolically labile blocking group so that slow release of the unblocked peptide can be achieved in vivo. Thus according to a further aspect of the invention we provide compounds of formula [drawing 10] wherein R^a, R^b, R^c, R^e, R^f and n are as defined for formula I, R^12 is a metabolically labile group, for example a 2-pyridylthio group, and all amino acids have the chiral form stated for formula (I).

NCCCC[C@H](NC(=O)[C@H](CS)NC(=O)[C@H](CC(=O)O)NC(=O)[C@H](CCC(=O)O)NC(=O)[C@@H]1CCC(=O)N1)C(=O)O [Example 1, L-PYROGLUTAMYL-L-GLUTAMYL-L-ASPARTYL-L-CYSTEINYL-L-LYSINE] ([pGlu]EDCK-OH)
inhibitory effect on haemopoiesis, occurring after: 1 days
